“Also recorded” adds a separate entry of the source.
Tested on: human insulin receptor
Assay: in vitro binding to the human insulin receptor
Conditions: compared with wild-type biosynthetic human insulin (Figure S10)

Substance: [(1-^13C=^18O)Phe^B24]human insulin
- receptor-binding activity: full insulin receptor binding activity; also recorded: fully active in insulin receptor binding

From PMC5477233 (Chembiochem : a European journal of chemical biology, 2016)
